In US10301304B2, “Selective inhibitor of phosphatidylinositol 3-kinase-gamma” (VERTEX PHARMACEUTICALS INCORPORATED, priority 2013, dated 2019):

How the values were obtained:
[1] = test system: CSF-1 stimulated pAkt in THP-1 cells (PI3Kα/β/δ); test: CSF-1 Stimulated pAkt in THP-1 Cells; type: cell-based; details: Homo sapiens; THP-1/CSF-1/pAkt, PI3K-alpha/beta/delta dependent; read-out: IC50 Avg +/− SD
Protocol: Growth factors, cytokines and other ligands of receptor tyrosine kinases, like CSF1, bind to their receptors leading to activation of the class IA PI3K signaling pathway. PI3K activation leads to generation of PIP3 and activation of downstream molecules like PDK-1 and Akt. Akt phosphorylation is a measure of PI3K activity in the cell. THP-1 cells (a human monocytic cell line) are starved overnight to deplete pAkt levels. Stimulation with CSF-1 for 5 minutes leads to PI3Kα/β/δ induced phoshorylation of Akt at the Threonine 308 and Serine 473 sites. Cells were fixed and stained for intracellular phosphoAkt (Ser 473) then analyzed on the BD FACSCalibur™ cytometer. This is a measure of cellular Class IA PI3K inhibition.

[2] = test system: CYP3A4; test: CYP3A4 Induction in Human Hepatocytes; type: in vitro ADME
Protocol: CYP activity was determined by monitoring metabolite formation of specific CYP probe substrates (phenacetin for CYP1A2 and testosterone for CYP3A4) using LC-MS/MS. CYP messenger ribonucleic acid (mRNA) was analyzed by RT-PCR to confirm CYP induction potential.

[3] = Tissue drug concentrations in CD40-induced IBD model; type: in vivo, mouse; details: 7 days, 2 h after last dose; for Kp at 2 h / concentration at 2 h: Rag1 knock-out (Rag 1−/−), mouse, intraperitoneal; for Kp at 2 h: colon (relative to plasma); for concentration at 2 h: plasma
Protocol: The PI3Kγ inhibitor, Compound 1, was tested in a CD40 induced colitis model to determine its effect on disease course. The CD40 model of IBD is induced by injecting an anti-CD40 monoclonal antibody (agonist, i.e., activating antibody versus neutralizing antibody) into T and B cell deficient mice (Rag 1−/− mice) to induce both systemic and intestinal inflammation that leads to colitis and wasting disease via the innate immune pathway. (See, e.g., Immunity 25, 309-318, August 2006). Briefly, Rag1 knock-out mice were injected IP with the anti-CD40 monoclonal antibody FGK45. Starting on Day 0, mice were treated with PBS, vehicle or Compound 1 at 5 mg/kg b.i.d. or 10 mg/kg b.i.d. Compound 1 was administered IP for 7 days on a 10/14-hour b.i.d. dosing regimen. Compound 1 was formulated in 5% NMP/15% PEG-400/80% in a 0.5% HPMC-E50 solution in water. At study termination, serum and colon samples were collected at 2 hours following the last dose for drug concentration analysis. Body weights were measured daily during the study. Compound 1 concentrations were analyzed in the plasma samples collected 2 hours following the final dose at study termination. Concentrations were determined using a high performance liquid chromatography/tandem mass spectrometry (HPLC/MS/MS) method.

[4] = test system: MDCK-WT; test: Permeability in MDCK wild-type cell line; type: in vitro ADME, canine; details: 1 μM, A > B
Protocol: (§1) The permeability of Compound 1 was evaluated using both Caco-2 and MadinDarby canine kidney (MDCK) wild-type cell lines. Cells were exposed to drug in buffer on the apical side (measuring permeability in the A-to-B direction) or basolateral side (measuring permeability in the B-to-A direction) and incubated at 37° C. for one hour. Permeability was high in the A-to-B direction in both the MDCK and Caco-2 cell lines (33 and 18×10^−6 cm/sec, respectively).

[5] = Permeability in MDCK wild-type cell line; type: in vitro ADME, canine; details: dog, MDCK-WT
Protocol: as §1

Cc1cc(-c2cncc([C@@H](O)C(F)(F)F)c2)nc2c1C(=O)N(c1cnn(CC(F)F)c1)C2(C)C [Compound 1, (R)-6-(1-(2,2-difluoroethyl)-1H-pyrazol-4-yl)-4,7,7-trimethyl-2-(5-(2,2,2-trifluoro-1-hydroxyethyl)pyridin-3-yl)-6,7-dihydro-5H-pyrrolo[3,4-b]pyridin-5-one]
IC50 [1]: > 9.7 µM
CYP3A4 mRNA message ([2]; 0.5 μM, lot 8123): 0.4 fold change
Testosterone-6β-Hydroxylation ([2]; 0.5 μM, lot 8123): 0.3 fold change
CYP3A4 mRNA message ([2]; 0.5 μM, lot LMP): 1.0 fold change
Testosterone-6β-Hydroxylation ([2]; 0.5 μM, lot LMP): 0.9 fold change
CYP3A4 mRNA message ([2]; 0.5 μM, lot YOW): 1.3 fold change
Testosterone-6β-Hydroxylation ([2]; 0.5 μM, lot YOW): 1.0 fold change
CYP3A4 mRNA message ([2]; 1.0 μM, lot 8123): 0.3 fold change
Testosterone-6β-Hydroxylation ([2]; 1.0 μM, lot 8123): 0.5 fold change
CYP3A4 mRNA message ([2]; 1.0 μM, lot LMP): 0.7 fold change
Testosterone-6β-Hydroxylation ([2]; 1.0 μM, lot LMP): 0.8 fold change
CYP3A4 mRNA message ([2]; 1.0 μM, lot YOW): 0.2 fold change
Testosterone-6β-Hydroxylation ([2]; 1.0 μM, lot YOW): 0.8 fold change
CYP3A4 mRNA message ([2]; 5.0 μM, lot 8123): 0.5 fold change
Testosterone-6β-Hydroxylation ([2]; 5.0 μM, lot 8123): 0.4 fold change
CYP3A4 mRNA message ([2]; 5.0 μM, lot LMP): 1.1 (1.1) fold change
Testosterone-6β-Hydroxylation ([2]; 5.0 μM, lot LMP): 1.1 (1.1) fold change
Testosterone-6β-Hydroxylation ([2]; 5.0 μM, lot YOW): 0.9 (NR^1) fold change
CYP3A4 mRNA message ([2]; 10.0 μM, lot 8123): 1.1 fold change
Testosterone-6β-Hydroxylation ([2]; 10.0 μM, lot 8123): 0.4 fold change
CYP3A4 mRNA message ([2]; 10.0 μM, lot LMP): 1.5 fold change
Testosterone-6β-Hydroxylation ([2]; 10.0 μM, lot LMP): 1.1 fold change
Testosterone-6β-Hydroxylation ([2]; 10.0 μM, lot YOW): 0.8 (NR^1) fold change
CYP3A4 mRNA message ([2]; 20.0 μM, lot 8123): 0.7 fold change
Testosterone-6β-Hydroxylation ([2]; 20.0 μM, lot 8123): 0.6 fold change
CYP3A4 mRNA message ([2]; 20.0 μM, lot LMP): 3.0 fold change
Testosterone-6β-Hydroxylation ([2]; 20.0 μM, lot LMP): 1.4 fold change
Testosterone-6β-Hydroxylation ([2]; 20.0 μM, lot YOW): 0.6 (NR^1) fold change
Testosterone-6β-Hydroxylation ([2]; 30.0 μM, lot 8123): 0.7 (NR^2) fold change
CYP3A4 mRNA message ([2]; 30.0 μM, lot LMP): 2.5 fold change
Testosterone-6β-Hydroxylation ([2]; 30.0 μM, lot LMP): 1.0 fold change
Testosterone-6β-Hydroxylation ([2]; 30.0 μM, lot YOW): 0.6 (NR^1) fold change
change in CYP3A4 activity and mRNA levels, % of the positive control ([2]; all three hepatocyte lots, 48 hour exposure): less than 20%
2 h Tissue Drug Concentration, Colon ([3]; 5 mg/kg b.i.d. IP): 6110 ± 6350 ng/g
2 h Tissue Drug Concentration, Colon ([3]; 10 mg/kg b.i.d. IP): 7480 ± 9700 ng/g
Kp at 2 h ([3]; 5 mg/kg b.i.d. IP): 1.5
Kp at 2 h ([3]; 10 mg/kg b.i.d. IP): 1.2
concentration at 2 h ([3]; 5 mg/kg b.i.d. IP): 4020 ± 4520 ng/mL
concentration at 2 h ([3]; 10 mg/kg b.i.d. IP): 6220 ± 6190 ng/mL
Avg. Papp [4]: 17.55 ×10⁻⁶ cm/s
Papp A→B at 1 h, 1 μM ([5]; MDCK, A > B): 33 ×10⁻⁶ cm/s
recovery at 1 h, 1 μM ([5]; MDCK, A > B): 90%
recovery at 1 h, 1 μM ([5]; MDCK, B > A): 93%
efflux ratio at 1 h, 1 μM [5]: 1.4
Papp B→A at 1 h, 1 μM ([5]; B > A): 23.8 ×10⁻⁶ cm/s
